Test results: patent US8895512B2, “Composition for improving brain function and method for improving brain function” (Calpis Co., Ltd., priority 2010, dated 2014)

Key:
[1] = test system: scopolamine-induced amnesia; details: male ddY mice; single oral dose of 5000 nmol/kg weight (1300 μg/kg) 60 min before Y-shaped maze test; scopolamine 1 mg/kg s.c. 30 min before test
Protocol: Water (control), scopolamine alone, or 500 nmol/kg weight or 5000 nmol/kg weight of FP together with scopolamine, was administered to mice, and their respective prophylactic effects against amnesia were evaluated in accordance with a method described in Example 1.
Male mice (n=15) of the ddY strain (approximately 7-week old) were used, and they took food and water ad lib. Test substances used were 500 mol/kg weight (130 μg/kg weight) or 5000 nmol/kg weight (1300 μg/kg weight) of FP. The test substances were administered to the mice once orally 60 minutes before the execution of a Y-shaped maze test for evaluation of spontaneous alternation behavior. […] The sequence of the arms each of the mice entered was recorded. The number of entries by each of the mice for each of the arms during the measurement time was counted to be the total number of entries. […] The percentage of spontaneous alternation behavior was calculated by dividing the number of spontaneous alternation behavior by a number obtained by subtracting 2 from the total number of entries, and multiplying a resultant number by 100. […] The measured values were expressed in the form of mean±standard error for each group. A significant difference between the control group and the scopolamine control group was calculated using Student's t-test. […]

ACE = ACE (Homo sapiens, UniProt P12821); details: reported in reference 3; cited from earlier work
Chain of ACE (P12821 30-1306, species assumed): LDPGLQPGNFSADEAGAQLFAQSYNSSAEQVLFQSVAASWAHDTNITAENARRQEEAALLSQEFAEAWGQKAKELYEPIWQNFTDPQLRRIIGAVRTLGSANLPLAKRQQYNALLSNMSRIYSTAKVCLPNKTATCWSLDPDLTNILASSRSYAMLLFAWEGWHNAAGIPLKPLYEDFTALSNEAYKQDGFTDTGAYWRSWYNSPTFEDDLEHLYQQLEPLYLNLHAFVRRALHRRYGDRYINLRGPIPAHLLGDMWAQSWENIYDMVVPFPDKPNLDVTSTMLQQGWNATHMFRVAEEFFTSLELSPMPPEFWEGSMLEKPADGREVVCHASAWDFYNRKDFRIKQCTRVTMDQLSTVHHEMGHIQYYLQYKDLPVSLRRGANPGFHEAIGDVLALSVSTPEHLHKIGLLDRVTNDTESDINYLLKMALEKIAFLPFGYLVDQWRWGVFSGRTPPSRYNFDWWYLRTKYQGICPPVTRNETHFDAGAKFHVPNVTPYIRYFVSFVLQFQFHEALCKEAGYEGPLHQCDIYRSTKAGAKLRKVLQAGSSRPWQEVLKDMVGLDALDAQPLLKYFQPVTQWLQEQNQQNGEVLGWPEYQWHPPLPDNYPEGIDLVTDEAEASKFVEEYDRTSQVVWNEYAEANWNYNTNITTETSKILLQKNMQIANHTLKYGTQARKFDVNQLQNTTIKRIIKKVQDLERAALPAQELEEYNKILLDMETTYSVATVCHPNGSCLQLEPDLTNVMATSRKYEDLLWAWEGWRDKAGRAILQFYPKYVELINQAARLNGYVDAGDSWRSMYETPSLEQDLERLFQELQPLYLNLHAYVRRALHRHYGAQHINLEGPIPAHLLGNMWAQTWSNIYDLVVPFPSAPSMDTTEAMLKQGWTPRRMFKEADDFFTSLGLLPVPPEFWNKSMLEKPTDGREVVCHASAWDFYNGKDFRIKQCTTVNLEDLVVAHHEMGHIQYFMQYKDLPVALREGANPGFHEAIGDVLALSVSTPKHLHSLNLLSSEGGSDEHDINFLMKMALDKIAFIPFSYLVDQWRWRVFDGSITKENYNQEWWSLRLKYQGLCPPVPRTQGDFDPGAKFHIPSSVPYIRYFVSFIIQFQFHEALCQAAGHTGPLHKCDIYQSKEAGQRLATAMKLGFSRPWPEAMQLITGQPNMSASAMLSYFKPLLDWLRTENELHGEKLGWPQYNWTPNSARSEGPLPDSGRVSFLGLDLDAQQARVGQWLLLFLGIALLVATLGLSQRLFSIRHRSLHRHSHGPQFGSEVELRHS

## Phe-Pro
[1]
  prophylactic activity against amnesia (percentage of spontaneous alternation behavior): had a prophylactic activity against amnesia
ACE
  hypotensive lowering activity based on ACE inhibitory activity: hypotensive lowering activity based on ACE inhibitory activity has been reported
